Results as given in patent US20240239788A1, “SMALL MOLECULE INHIBITORS OF KRAS G12D MUTANT” (Merck Sharp & Dohme LLC, priority 2021, published 2024).
Like-named read-outs stand apart in the source and are kept apart here.

Assays:
[1] = molecular target: KRAS protein containing G12D mutation (Homo sapiens (Human), UniProt P01116, G12D); experiment: SOS-catalyzed nucleotide exchange assay (GNE), TR-FRET; format: biochemical; details: biotinylated KRAS G12D, SOS and GTP, 60-minute incubation
Procedure: Compounds are added to this complex and then after a 60-minute incubation time the mixture is treated with SOS and unlabeled GTP. Small molecule inhibitors stabilize the Bodipy-GDP complex whereas the untreated protein rapidly exchanges Bodipy-GDP for unlabeled GTP resulting in reduced TR-FRET signal.
This solution is referred to as biotinylated KRAS G12D stock solution.

[2] = system: AsPC-1 cells containing homozygous KRAS-G12D activating mutation; experiment: Cellular phospho-ERK assay (Examples 1a-106); format: cell-based; details: Homo sapiens, ASPC1, 2 h, read-out: IC50 (nM) pERK (Cell)
Description: 5% CO? overnight. […] Assay plates were read on a EnVision Multimode Plate Reader (PerkinElmer) and the ratio of p-Erk vs total Erk in each well was used as the final readout.

[3] = AsPC-1 cells, 2 hours, ratio of p-Erk vs total Erk

Sequence of KRAS protein containing G12D mutation (P01116 other isoform, or with tags, fused parts or gaps G12D (already in the parent)): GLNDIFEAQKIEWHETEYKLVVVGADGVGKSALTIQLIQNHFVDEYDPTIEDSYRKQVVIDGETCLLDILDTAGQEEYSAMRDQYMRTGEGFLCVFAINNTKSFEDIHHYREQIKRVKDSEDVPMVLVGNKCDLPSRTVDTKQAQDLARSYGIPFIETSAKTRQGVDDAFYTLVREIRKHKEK

Structure (SMILES) | IC50 [1] | IC50 [2, 3] | IC50 [2]
NC(=O)C1(COc2nc(N3CC4CCC(C3)N4)c3cc(F)c(-c4cc(O)cc5ccccc45)c(F)c3n2)CNC1 [Example 15, 3-(((4-(3.8-diazabicyclo[3.2.1]octan-3-yl)-6,8-difluoro-7-(3-hydroxynaphthalen-1-yl)quinazolin-2-yl)oxy)methyl)azetidine-3-carboxamide] | 2140 nM | 50800 nM | –
CN(C)CC1(COc2nc(N3CC4CC(C)(O)C(C3)N4)c3cc(F)c(-c4cc(O)cc5ccccc45)c(F)c3n2)CC1 (stereo not drawn) [Example 27, 3-(2-((1-((dimethylamino)meth-yl)cyclopro-pyl)methoxy)-6,8-difluoro-7-(3-hydroxynaphthalen-1-yl)quinazolin-4-yl)-6-methyl-3,8-diazabicyclo [3.2.1]octan-6-ol] | 496 nM | 22500 nM | –
CN(C)CC1(COc2nc(N3CC4CC(C#N)C(C3)N4)c3cc(F)c(-c4cc(O)cc5ccccc45)c(F)c3n2)CC1 (stereo not drawn) [Example 28, 3-(2-((1-((dimethylamino)meth-yl)cyclopro-pyl)methoxy)-6,8-difluoro-7-(3-hydroxynaphthalen-1-yl)quinazolin-4-yl)-3,8-diazabicyclo[3.2.1]oc-tane-6-carbontrile] | 7450 nM | 50800 nM | –
CC1CC2CN(c3nc(OCC4(CN(C)C)CC4)nc4c(F)c(-c5cc(O)cc6ccccc56)c(F)cc34)CC1N2 (stereo not drawn) [Example 29, 4-(2-((1-((dimethyl-amino)methyl)cyclopro-pyl)methoxy)-6,8-difluoro-4-(6-methyl-3,8-diazabicyclo[3.2.1]oc-tan-3-yl)quinazolin-7-yl)naphthalen-2-ol] | 705 nM | 11600 nM | –
CN(C)CC1(COc2nc(N3CC4NC(C3)C3CC43)c3cc(Cl)c(-c4cc(O)cc5ccccc45)c(F)c3n2)CC1 (stereo not drawn) [Example 30, 4-(6-chloro-2-((1-((dimethylamino)meth-yl)cyclopropyl)meth-oxy)-8-fluoro-4-(7,9-diazatri-cyclo[3.3.1.02,4]nonan-7-yl)quinazolin-7-yl)naphthalen-2-ol] | 7610 nM | 30100 nM | –
COCC12CCC(CN(c3nc(OCC4(CN(C)C)CC4)nc4c(F)c(-c5cc(O)cc6ccccc56)c(Cl)cc34)C1)N2 (stereo not drawn) [Example 37, 4-(6-chloro-2-((1-((dimethylamino)meth-yl)cyclopro-pyl)methoxy)-8-fluoro-4-(1-(methoxy-methyl)-3,8-diazabicyclo[3.2.1]oc-tan-3-yl)quinazolin-7-yl)naphthalen-2-ol] | 571 nM | 16700 nM | –
CC[C@@H]1N[C@H]2CC[C@@H]1N(c1nc(OCC3(CN(C)C)CC3)nc3c(F)c(-c4cc(O)cc5ccccc45)c(Cl)cc13)C2 [Example 40, 4-(6-chloro-2-((1-((dimethylamino)methyl)cyclopropyl)methoxy)-4-((1S,4S,6S)-6-ethyl-2,5-diazabicyclo[2.2.2]octan-2-yl)-8-fluoroquinazolin-7-yl)naphthalen-2-ol] | 689 nM | 22000 nM | –
CN(C)CC1(COc2nc(N3C[C@H]4N[C@@](C)(C[C@@H]4O)C3)c3cc(Cl)c(-c4cc(O)cc5ccccc45)c(F)c3n2)CC1 [Example 44, (1S,5R,6S)-3-(6-chloro-2-((1-((dimethylamino)methyl)cyclopropyl)methoxy)-8-fluoro-7-(3-hydroxynaphthalen-1-yl)quinazolin-4-yl)-1-methyl-3,8-diazabicyclo [3.2.1]octan-6-ol] | 1160 nM | 13900 nM | –
CN(C)CC1(COc2nc(N3CC4CCC(C3)N4)c3cc(Cl)c(-c4c5ccccc5cc5[nH]c(=O)[nH]c45)c(F)c3n2)CC1 [Example 46, 4-(4-(3,8-diazabicyclo[3.2.1]octan-3-yl)-6-chloro-2-((1-((dimethylamino)methyl)cyclopropyl)methoxy)-8-fluoroquinazolin-7-yl)-1,3-dihydro-2H-naphtho[2,3-d]imidazol-2-one] | 9340 nM | 50800 nM | –
CN(C)CC1(COc2nc(N3CC4CCC(C3)N4)c3cc(Cl)c(-c4cc(O)ccc4C45CC(C4)C5)c(F)c3n2)CC1 [Example 47, 3-(4-(3,8-diazabicyclo[3.2.1]octan-3-yl)-6-chloro-2-((1-((dimethylamino)methyl)cyclopropyl)methoxy)-8-fluoroquinazolin-7-yl)-4-(bicyclo[1.1.1]pentan-1-yl)phenol] | 551 nM | 5790 nM | –
Oc1ccc(SC(F)(F)F)c(-c2c(F)cc3c(N4CC5CCC(C4)N5)nc(OCC4(CN5CCOCC5)CC4)nc3c2F)c1 [Example 48, 3-(4-(3,8-diazabicyclo[3.2.1]octan-3-yl)-6,8-difluoro-2-((1-(morpholinomethyl)cyclopropyl)methoxy)quinazolin-7-yl)-4-((trifluoromethyl)thio)phenol] | 529 nM | 6120 nM | –
Fc1cc2c(N3CC4CCC(C3)N4)nc(OCC3(CN4CCOCC4)CC3)nc2c(F)c1-c1cccc2sncc12 [Example 50, 4-((1-(((7-(benzo[d]isothiazol-4-yl)-4-(3,8-diazabicyclo[3.2.1]octan-3-yl)-6,8-difluoroquinazolin-2-yl)oxy)methyl)cyclopropyl)methyl) morpholine] | 5180 nM | 20300 nM | –
CNc1nc2c(-c3c(Cl)cc4c(N5CC6CCC(C5)N6)nc(OCC5(CN6CCOCC6)CC5)nc4c3F)ccc(F)c2s1 [Example 51, 4-(4-(3,8-diazabicyclo[3.2.1]octan-3-yl)-6-chloro-8-fluoro-2-((1-(morpholinomethyl)cyclopropyl)methoxy)quinazolin-7-yl)-7-fluoro-N-methylbenzo[d]thiazol-2-amine] | 3930 nM | 11200 nM | –
Fc1c(-c2ccc(F)c3scnc23)c(Cl)cc2c(N3CC4CCC(C3)N4)nc(OCC3(CN4CCOCC4)CC3)nc12 [Example 53, 4-((1-(((4-(3,8-diazabicyclo[3.2.1]octan-3-yl)-6-chloro-8-fluoro-7-(7-fluorobenzo[d]thiazol-4-yl)quinazolin-2-yl)oxy)methyl)cyclopropyl)methyl) morpholine] | 2780 nM | 11000 nM | –
Nc1nc2c(F)ccc(-c3c(Cl)cc4c(N5CC6CCC(C5)N6)nc(OCC5(CN6CCOCC6)CC5)nc4c3F)c2s1 [Example 54, 7-(4-(3,8-diazabicyclo[3.2.1]octan-3-yl)-6-chloro-8-fluoro-2-((1-(morpholinomethyl)cyclopropyl)methoxy)quinazolin-7-yl)-4-fluorobenzo[d]thiazol-2-amine] | 2650 nM | 14100 nM | –
CN(C)CC1(COc2nc(N3CC4CCC(C3)N4)c3cc(Cl)c(-c4c(Cl)c(F)cc5[nH]ncc45)c(F)c3n2)CC1 [Example 55, 1-(1-(((4-(3,8-diazabicyclo[3.2.1]octan-3-yl)-6-chloro-7-(5-chloro-6-fluoro-1H-indazol-4-yl)-8-fluoroquinazolin-2-yl)oxy)methyl)cyclopropyl)-N,N-dimethylmethanamine] | 969 nM | 7060 nM | –
CN(C)CC1(COc2nc(N3CC4CCC(C3)N4)c3cc(Cl)c(-c4cc(C(F)(F)F)cc5[nH]ncc45)c(F)c3n2)CC1 [Example 56, 1-(1-(((4-(3,8-diazabicyclo[3.2.1]octan-3-yl)-6-chloro-8-fluoro-7-(6-(trifluoromethyl)-1H-indazol-4-yl)quinazolin-2-yl)oxy)methyl)cyclopropyl)-N,N-dimethylmethanamine] | 4030 nM | 6920 nM | –
Nc1nc2c(-c3c(Cl)cc4c(N5CC6CCC(C5)N6)nc(OCC5(CN6CCOCC6)CC5)nc4c3F)cccc2o1 [Example 59, 4-(4-(3,8-diazabicyclo[3.2.1]octan-3-yl)-6-chloro-8-fluoro-2-((1-(morpholinomethyl)cyclopropyl)methoxy)quinazolin-7-yl)benzo[d]oxazol-2-amine] | 20.1 nM | 2210 nM | –
CN(C)CC1(COc2nc(N3C[C@H]4CC[C@@H](C3)N4)c3cc(Cl)c(-c4cccc5cccc(C#N)c45)c(F)c3n2)CC1 [Example 60, 8-(4-((1R,5S)-3,8-diazabicyclo[3.2.1]octan-3-yl)-6-chloro-2-((1-((dimethylamino)methyl)cyclopropyl)methoxy)-8-fluoroquinazolin-7-yl)-1-naphthonitrile] | 1590 nM | – | 8760 nM
CN(C)CC1(COc2nc(N3C[C@H]4CC[C@@H](C3)N4)c3cc(Cl)c(-c4c(C(F)(F)F)ccc5[nH]ncc45)c(F)c3n2)CC1 [Example 63, 1-(1-(((4-((1R,5S)-3,8-diazabicyclo [3.2.1]octan-3-yl)-6-chloro-8-fluoro-7-(5-(trifluoromethyl)-1H-indazol-4-yl)quinazolin-2-yl)oxy)methyl)cyclopropyl)-N,N-dimethylmethanamine] | 1590 nM | 26800 nM | –
Cc1cc2[nH]ncc2c(-c2c(F)cc3c(N4C[C@H]5CC[C@@H](C4)N5)nc(OCC4(CN(C)C)CC4(F)F)nc3c2F)c1Cl (stereo partly drawn) [Example 64, 1-(1-(((4-((1R,5S)-3,8-diazabicyclo[3.2.1]octan-3-yl)-7-(5-chloro-6-methyl-1H-indazol-4-yl)-6,8-difluoroquinazolin-2-yl)oxy)methyl)-2,2-difluorocyclopropyl)-N,N-dimethylmethanamine] | 146 nM | 4380 nM | –
